Assay results: patent US6300065A, “Yeast cell surface display of proteins and uses thereof” (Board of Trustees of the University of Illinois, priority 1998, dated 2001)

Experiments:
[1] = tested on: 4-4-20 anti-fluorescein scFv mutant 4M1.2, yeast surface displayed Aga2p fusion; assay: Competitive dissociation of labeled antigen from yeast surface displayed scFv, followed by flow cytometry; assay type: binding; settings: 23° C., 5-aminofluorescein as competitor
Description: (§1) Yeast cells bearing plasmid pCT202 were grown and labeled with anti-c-myc mAb 9E10 and FITC-dextran or biotin-fluorescein, as described. A fraction of the labeled population was analyzed flow cytometrically to determine the initial level of fluorescence. Non-fluorescent competitor (5-aminofluorescein) was added to a final concentration of approximately […] (~1000-fold excess) and the FITC or PE fluorescence of the c-myc positive cell population was followed as a function of time at room temperature (21-23° C.) on a Coulter Epics XL. Data were fitted as an exponential decay. The probability that a polyvalent antigen is bound to the cell as a function of time is given by P=1-(1-e^-kt)^N, where N is the valency, k is the kinetic rate constant for dissociation, and t is time. For long times t, this reduces to P=Ne^-kt. Thus, extrapolation of data for long t to time zero yields P=N, or a fluorescence intensity of Fext =N Fo, where Fext is the extrapolated fluorescence at the time of competitor addition and Fo is the actual initial fluorescence.

[2] = tested on: 4-4-20 anti-fluorescein scFv, wild-type, yeast surface displayed Aga2p fusion; assay: as above; assay type: binding; settings: 5-aminofluorescein as competitor
Description: as §1

[3] = molecular target: 4-4-20 anti-fluorescein antibody; settings: stated in discussion, no method given; cited from earlier work
[4] = tested on: 4-4-20 anti-fluorescein scFv mutant 4M1.2; assay: Soluble fluorescein dissociation kinetics by spectrofluorometry (fluorescence quenching, whole cells displaying scFv); assay type: binding; settings: mutant 4M1.2 vs wild-type 4-4-20 scFv
Description: (§2) Binding to soluble fluorescein (FDS) was assayed by observing fluorescence quenching by whole cells displaying scFv. Cells were suspended at 2×10^7 cells/ml in TBS+0.1% BSA in a quartz cuvette thermostatted at 23° C. and titrated with FDS over a range of 0-7.5 nM. […] Control cells displaying an irrelevant scFv were titrated to obtain a slope for a two-parameter fit of an equilibrium binding model to the data, yielding equilibrium constants and effective scFv concentrations. Following the equilibrium titration, 5-aminofluorescein was added to 1 mM and the change in fluorescence of the sample followed with time to determine koff for FDS.

[5] = tested on: 4-4-20 anti-fluorescein scFv mutant 4M1.1; assay: as above; assay type: binding; settings: mutant 4M1.1 vs wild-type 4-4-20 scFv
Description: as §2

Row | SMILES | koff for fluorescein-biotin [1] [s⁻¹] | monovalent dissociation rate constant (koff) for fluorescein-biotin ([2]; 21° C.) [s⁻¹] | koff for fluorescein-biotin ([2]; 23° C., wild-type) [s⁻¹] | Kd [3] [nM] | improvement of soluble fluorescein dissociation kinetics relative to wild-type [4] [fold] | improvement of soluble fluorescein dissociation kinetics relative to wild-type [5] [fold]
1 | O=C(CCCCCNC(=O)CCCC[C@@H]1SC[C@@H]2NC(=O)N[C@@H]21)NCCCCCNC(=S)Nc1ccc2c(c1)C(=O)OC21c2ccc(O)cc2Oc2cc(O)ccc21 [fluorescein-biotin] | 0.0028 | 0.0039 | 0.005 | – | – | –
2 | O=C1OC2(c3ccc(O)cc3Oc3cc(O)ccc32)c2ccccc21 [fluorescein] | – | – | – | 0.4 | 2.2 | 2.2
